The text below walks through data of patent US8729048B2, “Methods and materials for assessing responsiveness to PARP inhibitors and platinating agents” (Mayo Foundation for Medical Education and Research, priority 2011, dated 2014).

Format in all cases: cell-based
Test [1] relates to BRCA2-positive PEO4 cells. Description: Clonogenic assay, PEO4. The conditions noted are these: 72 hours. As for the experimental part: FIG. 5. NHEJ is a major contributor to PARP inhibitor effects in BRCA2-deficient cells. (A) Western blots showing knockdown of Ku80 in PEO1 and PEO4 cells. (B) Clonogenic survival of PEO1 and PEO4 cells from (A), which were treated with the indicated ABT-888 concentration for 72 hours, washed, and allowed to form colonies. (C) Western blots following treatment with siRNA targeting luciferase (control), Ku80, PARP1, or both Ku80 and PARP1. (D) Clonogenic viability of PEO 1 and PEO4 cells from (C). Following knockdown, cells were plated onto triplicate plates and allowed to form colonies. (E) Clonogenic survival of PEO1 cells following Artemis knockdown. After treatment with the indicated siRNA, plates were treated with indicated concentration of ABT-888 for 72 hours, washed, and allowed to form colonies. Inset, Western blots showing knockdown using luciferase (control) or Artemis siRNAs in PEO1 cells. (F) Clonogenic survival of PEO1 and PEO4 cells treated for 72 hours with ABT-888 in combination with diluent or 500 nM DNA-PKi. All results are reported as means of triplicate plates±SEM, and are representative of 3 independent experiments.
Colony formation assays were performed on siRNA-transfected PEO1 and PEO4 cells 48 hours after the second transfection. Cells were trypsinized and plated at 750 cells/plate in triplicate 60-mm dishes containing medium A, allowed to grow 10-14 days, and stained with Coomassie Brilliant Blue. Colonies containing ≧50 cells were scored manually. To assess methyl methanesulfonate (MMS) sensitivity, PEO1 or PEO4 cells were incubated for 48 hours after the second siRNA treatment, plated onto 60-mm dishes, allowed to adhere for 4 hours, exposed to the indicated concentration of MMS (Sigma-Aldrich) for 1 hour, washed with sterile RPMI 1640, and allowed to grow into colonies in medium A. For drug treatment, cells (without siRNA) were allowed to adhere for 4-6 hours, then treated with the indicated concentrations of ABT-888 and/or AZ12594248 for 72 hours. […]

The subject of test [2] is MMEJ activity in PEO4 cells. Description: Microhomology mediated end-joining assay (MMEJ), PEO4. The conditions noted are these: 72 hours. An excerpt: FIG. 11. PARP inhibition fails to induce microhomology-mediated end-joining (MMEJ). (A) Schematic of the reporter substrate used to assay for MMEJ activity. Cleavage of pDVG94 with EcoRV and AfeI creates a blunt-ended linearized substrate, with identical 6-bp ends. Direct joining by NHEJ will result in maintenance of both repeats, but MMEJ will excise one repeat, introducing a new BstXI site. PCR across recircularized substrate produces a product of 180 bp, which can be cut into 120 and 60 bp fragments if the BstXI site was created. This figure is adapted from a figure provided elsewhere (Verkaik et al., Eur. J. Immunol., 32:701-709 (2002)). (B) and (C) Agarose gel from a representative MMEJ assay. PEO1 (B, lanes 1-10) and PEO4 (C) cells were treated with increasing concentrations of ABT-888 following transfection with linearized pDVG94. The size of the initial PCR product (180 bp) as well as BstXI cleaved products (120 bp and 60 bp) are indicated. As a positive and negative control, a cell line previously documented to undergo MMEJ (Lou et al., J. Biol. Chem., 279:46359-46362 (2004)), M059J (B, lanes 11 and 12), and a MMEJ-negative line, M059J+DNA-PKcs (B, lanes 13 and 14) were used. Images were captured from one gel and cut to create two panels. […]

Test [3] concerns ATM-deficient GM16666 fibroblasts. Description: Clonogenic assay, GM16666. Particulars: GM16666 cells versus ATM-reconstituted GM16667, 48 hours. As for the experimental part: FIG. 6. […] (A) BRCA1-deficient HCC1937 and BRCA1-reconstituted HCC1937/BRCA1 cells were continuously exposed to ABT-888 in the presence or absence of 125 nM DNA-PKi and assayed for clonogenic survival. Inset, Western blots of cell lysates from HCC1937 and HCC1937/BRCA1. (B) Western blots of M059J and reconstituted M059J+DNA-PKcs lines showing the restoration of DNA-PK expression and the shRNA-mediated knockdown of BRCA1. (C) Clonogenic survival of shRNA transfected M059J/M059J+DNA-PKcs lines treated with ABT-888 for 72 hours. (D) Clonogenic survival of ATM-deficient GM16666 or ATM-reconstituted GM16667 fibroblasts. Cells were exposed to ABT-888 for 48 hours in the presence or absence of 250 nM DNA-PKi, washed, and allowed to form colonies. Inset, Western blots of lysates from GM16666 and GM16667 fibroblasts. […] Results are representative of 3 independent experiments.
Colony formation assays were performed on siRNA-transfected PEO1 and PEO4 cells 48 hours after the second transfection. Cells were trypsinized and plated at 750 cells/plate in triplicate 60-mm dishes containing medium A, allowed to grow 10-14 days, and stained with Coomassie Brilliant Blue. Colonies containing ≧50 cells were scored manually. […]

For the compound `C[C@]1(c2nc3c(C(N)=O)cccc3[nH]2)CCCN1` [ABT-888], the clonogenic survival result in test [1] is given as “resistant to the effects of ABT-888”. Moreover, the “clonogenic survival with ABT-888 after Ku80 knockdown” value in test [1] (Ku80 siRNA) is given as “unaffected by Ku80 siRNA”. The “induction of MMEJ” value in test [2] is “not detected”. The clonogenic sensitivity result in test [3] is listed as “heightened sensitivity”.
